From US7750154B2, “Amide derivatives” (AstraZeneca AB, priority 2003, dated 2010)

Key:
[1] = tested on: TNFα production in human whole blood; experiment: Human whole blood assay, LPS-stimulated TNFα production; assay type: cell-based; details: inhibition of TNFα production
Procedure: The ability of a test compound to inhibit TNFα production was also assessed in a human whole blood assay. Human whole blood secretes TNFα when stimulated with LPS. […] Plates were incubated for 30 minutes at 37° C. (humidified incubator), prior to addition of 20 μl LPS (final concentration 10 μg/ml). Culture medium was added to control wells. Six “LPS alone” and six “medium alone” controls were included on each plate. A known TNFα synthesis/secretion inhibitor was included in each test. Plates were incubated for 6 hours at 37° C. (humidified incubator). Plates were centrifuged (2000 rpm for 10 minutes) and 80 μl plasma removed and stored at −80° C. (Corning 3799 plates). TNFα levels were measured by ELISA using paired antibodies from R&D Systems (catalogue nos. MAB610 and BAF210).

p38α = biological target: T1, p38α (Homo sapiens, UniProt Q16539); experiment: In vitro enzyme assay, p38α kinase; assay type: biochemical
T1 construct: c-myc (N); 6His (N); made in house; host or cells: E. coli (PET vectors)
T1 sequence (Q16539 whole entry): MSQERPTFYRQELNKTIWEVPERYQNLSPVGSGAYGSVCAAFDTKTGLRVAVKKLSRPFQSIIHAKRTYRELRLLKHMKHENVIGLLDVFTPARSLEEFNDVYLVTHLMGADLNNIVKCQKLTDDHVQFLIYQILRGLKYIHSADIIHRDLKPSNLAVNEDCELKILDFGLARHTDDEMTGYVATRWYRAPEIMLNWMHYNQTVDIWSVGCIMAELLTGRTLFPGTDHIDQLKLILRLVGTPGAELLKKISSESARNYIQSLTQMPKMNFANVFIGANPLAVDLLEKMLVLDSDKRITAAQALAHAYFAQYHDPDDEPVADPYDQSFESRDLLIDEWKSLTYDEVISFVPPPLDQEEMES

Compound	IC50 [1] [µM]	IC50 (p38α) [µM]
Cc1ccc(NC(=O)c2ccnc(Cl)c2)cc1-n1cnc2ccc(N3CCN(C)CC3)cc2c1=O [Comparator Compound A, 3-[5-(2-chloropyrid-4-ylcarbonylamino)-2-methylphenyl]-6-(4-methylpiperazin-1-yl)-3,4-dihydroquinazolin-4-one, reference compound]	3.71	0.277
Cc1ccc(C(=O)NC2(C)CC2)cc1-n1cnc2ccc(N3CCN(C)CC3)cc2c1=O [6 (a), 4-methyl-N-(1-methylcyclopropyl)-3-[6-(4-methylpiperazin-1-yl)-4-oxoquinazolin-3(4H)-yl]benzamide]	0.351	0.081

Further lines, results first:

IC50 [1] [µM]	IC50 (p38α) [µM]	Compound
3.85	0.041	Cc1ccc(NC(=O)c2cc(F)cc(F)c2)cc1-n1cnc2ccc(N3CCN(C)CC3)cc2c1=O [Comparator Compound B, 3-[5-(3,5-difluorobenzamido)-2-methylphenyl]-6-(4-methylpiperazin-1-yl)-3,4-dihydroquinazolin-4-one, reference compound]
0.017	0.019	Cc1ccc(C(=O)NC2CC2)cc1-n1cnc2ccc(OCCN(C)C)cc2c1=O [Example 24, N-Cyclopropyl-3-[6-[2-(dimethylamino)ethoxy]-4-oxoquinazolin-3(4H)-yl]-4-methylbenzamide]
0.034	0.008	CCCN1CCCN(c2ccc3ncn(-c4cc(C(=O)NC5CC5)ccc4C)c(=O)c3c2)CC1 [Example 7, N-cyclopropyl-4-methyl-3-[4-oxo-6-(4-propyl-1,4-diazepan-1-yl)quinazolin-3(4H)-yl]benzamide]
